Calls of active or inactive are those of the source.
Tests used:
HEK293 = experiment: inhibitors of LMP1-driven NF-kB reporter, dose response, cell-based, HEK293, luciferase, cherry-pick (AID 588343); type: functional; conditions: Homo sapiens
[1] = biological target: T1, Sentrin-specific protease 1 (Homo sapiens, UniProt Q9P0U3); experiment: potency of human SENP1 inhibitors, dose response, biochemical, kinetic FRET (AID 651697); type: functional; conditions: read-out: IC50_Mean
T1 sequence (Q9P0U3 whole entry): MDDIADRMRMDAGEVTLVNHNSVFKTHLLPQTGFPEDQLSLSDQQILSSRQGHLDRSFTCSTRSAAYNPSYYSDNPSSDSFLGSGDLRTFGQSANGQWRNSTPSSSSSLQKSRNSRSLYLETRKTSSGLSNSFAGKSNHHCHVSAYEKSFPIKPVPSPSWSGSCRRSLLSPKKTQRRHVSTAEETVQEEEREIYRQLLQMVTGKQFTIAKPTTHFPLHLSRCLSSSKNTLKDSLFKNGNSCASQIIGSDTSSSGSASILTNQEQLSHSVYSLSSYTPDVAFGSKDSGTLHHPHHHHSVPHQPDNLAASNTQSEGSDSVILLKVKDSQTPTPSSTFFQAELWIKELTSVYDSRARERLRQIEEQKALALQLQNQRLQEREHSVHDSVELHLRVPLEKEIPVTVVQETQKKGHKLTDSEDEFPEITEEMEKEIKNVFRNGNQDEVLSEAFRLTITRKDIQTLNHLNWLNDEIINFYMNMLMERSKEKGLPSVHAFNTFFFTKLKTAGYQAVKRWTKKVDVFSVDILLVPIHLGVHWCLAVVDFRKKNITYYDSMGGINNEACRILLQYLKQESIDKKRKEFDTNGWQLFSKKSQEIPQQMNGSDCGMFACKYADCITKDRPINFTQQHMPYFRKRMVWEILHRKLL

Streptokinase A = biological target: T2, Streptokinase A (Streptococcus pyogenes serotype M1, UniProt P10520); experiment: S. pyogenes streptokinase expression inhibitors, potency, dose response, plasminogen activation absorbance, OD405 (AID 1914); type: functional, Streptococcus pyogenes M1 GAS;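 further: secreted streptokinase activity via plasminogen activation per viability signal from cell pellet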
T2 sequence (P10520 whole entry): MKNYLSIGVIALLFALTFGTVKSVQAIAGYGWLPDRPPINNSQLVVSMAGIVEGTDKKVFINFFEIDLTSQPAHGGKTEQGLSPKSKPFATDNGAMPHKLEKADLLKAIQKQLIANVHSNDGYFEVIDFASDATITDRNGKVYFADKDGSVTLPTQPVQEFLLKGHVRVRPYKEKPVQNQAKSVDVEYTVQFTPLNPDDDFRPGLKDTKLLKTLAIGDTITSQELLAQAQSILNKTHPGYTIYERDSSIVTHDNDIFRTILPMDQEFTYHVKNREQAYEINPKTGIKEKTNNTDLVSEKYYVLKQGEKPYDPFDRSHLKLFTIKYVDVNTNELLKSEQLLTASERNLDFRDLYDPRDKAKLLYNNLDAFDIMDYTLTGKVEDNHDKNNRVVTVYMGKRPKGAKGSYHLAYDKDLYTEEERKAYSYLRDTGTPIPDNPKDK

Streptococcus = experiment: Group A Streptococcus viability loss, dose response, counter-screen for streptokinase expression inhibitor project, luminescence, BacTiterGlo (AID 1915); type: functional, organism-based;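 further: potency for reduction of bacterial viability or growth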
[2] = system: Streptococcus sp. 'group A'; experiment: growth inhibition of control SK(-) GAS strain, dose response, counter-screen for streptokinase expression inhibitor project, luminescence, kanamycin, BacTiterGlo, confirmation (AID 1900); type: functional, organism-based
[3] = biological target: T1, Sentrin-specific protease 1; experiment: Dose response confirmation of small molecule inhibitors of the catalytic domain of the SUMO protease, SENP1 in a FRET assay.; type: functional; conditions: read-out: IC50_Mean
[4] = biological target: T3, Small ubiquitin-related modifier 1 (Homo sapiens, UniProt P63165); experiment: inhibitors of SUMO1 partner interactions, dose response, biochemical, FRET (AID 624383); type: functional; conditions: read-out: IC50_Mean
Caspase-6 = biological target: T4, Caspase-6 (Homo sapiens, UniProt P55212); experiment: human caspase-6 inhibitors, dose response, biochemical, VEID-R110 fluorescence, cherry-pick (AID 720632)
T4 sequence (P55212 whole entry): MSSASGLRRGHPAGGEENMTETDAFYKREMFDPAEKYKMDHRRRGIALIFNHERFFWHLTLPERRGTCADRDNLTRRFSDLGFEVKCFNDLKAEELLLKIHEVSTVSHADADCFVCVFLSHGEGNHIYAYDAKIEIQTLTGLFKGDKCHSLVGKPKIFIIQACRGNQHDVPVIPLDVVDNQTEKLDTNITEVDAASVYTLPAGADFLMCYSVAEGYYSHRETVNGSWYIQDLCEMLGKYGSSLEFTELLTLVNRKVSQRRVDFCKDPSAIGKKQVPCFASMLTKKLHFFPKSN

[5] = biological target: T5, Carboxy-terminal domain RNA polymerase II polypeptide A small phosphatase 1 (Homo sapiens, UniProt Q9GZU7); experiment: inhibitors of CTDSP1, concentration-response testing, biochemical assay, absorbance-based, actives from ultra-high-throughput screening (AID 540297); type: functional
T5 sequence (Q9GZU7 whole entry): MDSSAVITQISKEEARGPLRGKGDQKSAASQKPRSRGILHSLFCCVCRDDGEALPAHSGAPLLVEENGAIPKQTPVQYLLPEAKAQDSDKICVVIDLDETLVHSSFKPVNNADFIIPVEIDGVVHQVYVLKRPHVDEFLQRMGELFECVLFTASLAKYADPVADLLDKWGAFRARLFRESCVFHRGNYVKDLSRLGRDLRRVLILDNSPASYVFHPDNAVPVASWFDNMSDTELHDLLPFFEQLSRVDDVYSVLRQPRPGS

[6] = biological target: T3, Small ubiquitin-related modifier 1; experiment: inhibitors of SUMO1 peptide binding, dose response, biochemical, fluorescence polarization, uHTS hits (AID 624382); type: functional; conditions: read-out: IC50_Mean
P388/ADR = experiment: cells; type: functional; conditions: Mus musculus
P388 = experiment: cells; type: functional; conditions: Mus musculus
SN12K1 = experiment: cells; type: functional; conditions: Homo sapiens
[7] = DNA binding of candidate compounds, dose response, artefact control for RAD54 inhibitor project, biochemical, fluorescence polarization, cherry-pick (AID 651673); type: functional
Beta-lactamase [8] = biological target: T6, Beta-lactamase (Pseudomonas aeruginosa, UniProt Q79MP6); experiment: […] counterscreen for selective VIM-2 inhibitors: dose response biochemical high throughput screening assay to identify inhibitors of IMP-1 metallo-beta-lactamase.
Beta-lactamase [9] = biological target: T6, Beta-lactamase; experiment: IMP-1 metallo-beta-lactamase inhibitors, dose response, selectivity assay for VIM-2 inhibitor project, biochemical, epi-absorbance (AID 1920)
Beta-lactamase [10] = biological target: Beta-lactamase (Salmonella choleraesuis (strain SC-B67), UniProt Q5J463); experiment: Epi-absorbance-based counterscreen for selective VIM-2 inhibitors: dose response biochemical high throughput screening assay to identify inhibitors of TEM-1 serine-beta-lactamase.
HeLa = experiment: HeLa cell cytotoxicity, dose response, cytotoxicity control for MITF activator project, CellTiter-Glo luminescence, cherry-pick samples (AID 540259); type: functional, cell-based; conditions: Homo sapiens
[11] = biological target: Luciferin 4-monooxygenase (Photinus pyralis, UniProt P08659); experiment: firefly luciferase enzyme inhibitors, dose response, biochemical, luminescence (AID 1891)
[12] = Luminescence Cell-Based Dose Confirmation HTS to Identify Inhibitors of Platelet Dense Granule Release. [Related pubchem assays: 1663 (Primary HTS), 1678 (Summary of Project)]; type: functional
Vero = experiment: Vero cell toxicity, dose response, cytotoxicity control, plate reader, cherry-pick samples (AID 687020); type: functional, cell-based; conditions: Chlorocebus sabaeus

T3 sequence (P63165 whole entry): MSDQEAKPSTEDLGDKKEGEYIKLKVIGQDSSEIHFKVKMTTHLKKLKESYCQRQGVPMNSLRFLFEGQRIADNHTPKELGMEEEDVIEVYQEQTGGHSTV
T6 sequence (Q79MP6 whole entry): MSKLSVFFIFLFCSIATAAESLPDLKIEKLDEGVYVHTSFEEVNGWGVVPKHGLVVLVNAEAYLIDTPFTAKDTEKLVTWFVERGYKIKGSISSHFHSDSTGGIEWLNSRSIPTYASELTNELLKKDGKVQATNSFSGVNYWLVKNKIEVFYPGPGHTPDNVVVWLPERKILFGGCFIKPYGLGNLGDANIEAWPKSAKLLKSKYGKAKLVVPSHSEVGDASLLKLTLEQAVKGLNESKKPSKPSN
Sequence of Luciferin 4-monooxygenase (P08659 whole entry): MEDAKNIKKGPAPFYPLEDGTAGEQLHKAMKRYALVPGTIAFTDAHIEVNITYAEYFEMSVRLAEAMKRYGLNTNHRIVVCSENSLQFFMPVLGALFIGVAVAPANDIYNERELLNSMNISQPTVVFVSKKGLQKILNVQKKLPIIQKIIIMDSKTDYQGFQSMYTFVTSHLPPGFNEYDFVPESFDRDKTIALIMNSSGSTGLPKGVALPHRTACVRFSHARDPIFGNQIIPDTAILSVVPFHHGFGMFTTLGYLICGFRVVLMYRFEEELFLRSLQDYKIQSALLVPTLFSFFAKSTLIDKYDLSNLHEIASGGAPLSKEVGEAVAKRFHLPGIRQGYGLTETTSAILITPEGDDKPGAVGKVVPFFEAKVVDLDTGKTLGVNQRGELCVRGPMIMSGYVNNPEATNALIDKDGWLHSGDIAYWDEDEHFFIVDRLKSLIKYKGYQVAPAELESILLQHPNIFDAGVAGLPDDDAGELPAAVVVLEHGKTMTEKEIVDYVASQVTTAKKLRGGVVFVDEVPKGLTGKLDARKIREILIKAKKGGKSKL
Sequence of Beta-lactamase (Salmonella choleraesuis (strain SC-B67), UniProt Q5J463) (Q5J463 whole entry): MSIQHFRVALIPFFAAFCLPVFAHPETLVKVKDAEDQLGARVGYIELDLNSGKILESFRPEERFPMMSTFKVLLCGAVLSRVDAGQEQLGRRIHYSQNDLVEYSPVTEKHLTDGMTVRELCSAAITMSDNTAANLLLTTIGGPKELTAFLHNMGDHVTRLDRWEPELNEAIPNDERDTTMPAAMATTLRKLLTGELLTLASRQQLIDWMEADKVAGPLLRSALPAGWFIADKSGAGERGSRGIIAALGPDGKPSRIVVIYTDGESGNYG

CCc1ccc(/C=C2\SC(=S)N(CCCC(=O)NC3=NCCS3)C2=O)cc1
AC50 (HEK293): 1.85 µM (active)

COC(=O)c1c(NC(=O)c2ccccc2)sc(C(=O)c2ccccc2)c1C
IC50 [1]: 15.6 µM (active)
EC50 (Streptokinase A): > 150 µM (not active)
EC50 (Streptococcus): 18.4 µM (active)
EC50 [2]: 6.12 µM (active)
IC50 [3]: 21.3 µM (inactive)

CC1=CCC(C(=O)O)C(C(=O)NC2CCCCC2)C1 (stereo not drawn)
IC50 [4]: 20.4 µM (inactive)
AC50 (Caspase-6): 10.2 µM (active)
IC50 [5]: 33.8 µM (active)
IC50 [6]: > 66.6 µM (inactive)

C=C1C(O)C2(O)OCC34C(CC5C(C)=CC(=O)C(O)C5(C)C23)OC(=O)C(OC(=O)C/C=C/CCCCCCCC)C14 (stereo not drawn)
GI50 (P388/ADR): 0.0611 µM (active)
GI50 (P388): 0.02 µM (active)
GI50 (SN12K1): 0.02 µM (active)

Cc1nc2oc3c(O)ncnc3c2c2c1COC(C)(C)C2
AC50 [7]: 67.1 µM (active)

S=c1[nH]nc(Cn2c(-c3ccccn3)nc3ccccc32)n1-c1ccc2c(c1)OCCO2
IC50 (Beta-lactamase [8]): > 59.6 µM (inactive)
IC50 (Beta-lactamase [9]): > 59.6 µM (inactive)
IC50 (Beta-lactamase [10]): > 59.6 µM (inactive)

CCCCCCC(=O)Nc1nc(C)c(-c2csc(Nc3cc(Cl)ccc3C)n2)s1
IC50 [4]: 10.1 µM (active)
IC50 [6]: > 66.6 µM (inactive)

O=C(NC(Cc1ccc(I)cc1)C(=O)O)c1cccc(Br)c1 (stereo not drawn)
GI50 (P388/ADR): 55.2 µM (inactive)
GI50 (P388): 47.6 µM (inactive)
GI50 (SN12K1): > 100 µM (inactive)

Cc1ccc(N(C)/N=C/c2ccc(Cl)cc2Cl)nn1
AC50 (HeLa): 75.3 µM (active)
EC50 [11]: > 112 µM (not active)
EC50 [12]: > 112 µM (not active)

COCCNC(=O)c1cc2cc3ccc(OC)cc3nc2o1
AC50 (Vero): 27.7 µM (active)

Cc1c(C#N)c(O)nc(O)c1N=Nc1ccc(Br)cc1C(=O)O
IC50 [1]: 18.1 µM (active)
IC50 [3]: 10.6 µM (active)

Source: ChEMBL document CHEMBL1201862, “PubChem BioAssay data set” (2004)
